Numbering of substitutions follows the chain as printed. Like-named read-outs stand apart in the source and are kept apart here.
Assays:
Abl = target: T1, Abl (Homo sapiens, UniProt P00519); assay: In vitro kinase assay (32P peptide phosphorylation), WT Abl; assay type: biochemical
T1 sequence (P00519 242-493 limits assumed): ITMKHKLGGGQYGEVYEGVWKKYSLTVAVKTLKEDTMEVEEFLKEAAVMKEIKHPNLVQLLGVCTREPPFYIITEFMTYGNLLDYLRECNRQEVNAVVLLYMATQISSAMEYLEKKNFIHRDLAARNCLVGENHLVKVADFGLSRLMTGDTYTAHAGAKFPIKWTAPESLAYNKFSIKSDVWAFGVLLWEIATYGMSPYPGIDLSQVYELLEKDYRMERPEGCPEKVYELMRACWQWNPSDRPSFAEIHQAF

parental BaF3 cells = assay: Cell proliferation (Resazurin) of parental BaF3 cells; assay type: cell-based; settings: grown with recombinant IL-3; especially at 1 mM inhibitor
Source text: The ability of AD57 to inhibit Bcr-Abl and T315I Bcr-Abl was examined in a cell based assay. The Bcr-Abl oncogene was transduced into BaF3 cells, rendering them IL-3-independent. “IL-3” refers to interleukin 3 which in human maps to gene locus 5q31.1, as known in the art. Recombinant IL-3 is available commercially. BaF3 is a hematopoietic cell line that is normally dependent on IL-3 for growth and proliferation. However, through expression of activated Bcr-Abl, the cells become transformed to an IL-3 independent state. In this assay, cell proliferation is directly correlated to the activity of Bcr-Abl. Wild-type Bcr-Abl, T315I Bcr-Abl, and parental BaF3 cells were treated with AD57 (Cmpd 5) at the indicated concentrations for two days. The parental BaF3 cells, but not the Bcr-Abl transduced cells, were grown in the presence of recombinant IL-3 during the time course of this experiment. After the two day treatment, cell proliferation was quantified using the dye Resazurin, which is converted into a fluorescently detectable form only when metabolized by living cells.
It is possible to inhibit the growth of BaF3 cells transduced with Bcr-Abl through non-specific inhibition mediated toxicity. Therefore, the effects of the inhibitors on the growth of parental BaF3 cells have also been measured.

T338G Src = T338G Src (Gallus gallus, UniProt P00523, T338G); assay: In vitro kinase assay, T338G Src; assay type: biochemical; settings: Table 1b
Procedure: (§1) Kinase reactions were initiated by the addition of […] cold ATP supplemented with 5 mCi γ^32P ATP and allowed to proceed at room temperature (RT). At 10 minutes […] of the reactions were spotted onto phosphocellulose sheets (P81, Whatman) and subsequently soaked in wash buffer (1.0% (v/v) phosphoric acid). The sheets were washed five times in buffer, dried, and transferred radioactivity was measured by phosphorimaging using a TyphoonTM scanner (Molecular Dynamics). Radioactive counts were quantified using ImageQuantTM software, and titration data were fit to a sigmoidal dose response to derive IC50 values using the Prism® software package. Dose responses were based on a 12 point inhibitor titration, using 1⁄3 dilutions starting from […]. Experiments were completed 2-4 times to derive mean values.

c-Src = c-Src (Gallus gallus, UniProt P00523); assay: In vitro kinase assay (32P peptide phosphorylation), WT Src; assay type: biochemical
[1] = tested on: Bcr-Abl transduced BaF3 cells; assay: Cell proliferation (Resazurin) of Bcr-Abl transduced BaF3 cells; assay type: cell-based; settings: two day treatment, without IL-3
Source text: The Bcr-Abl oncogene was transduced into BaF3 cells, rendering them IL-3-independent. “IL-3” refers to interleukin 3 which in human maps to gene locus 5q31.1, as known in the art. Recombinant IL-3 is available commercially. BaF3 is a hematopoietic cell line that is normally dependent on IL-3 for growth and proliferation. However, through expression of activated Bcr-Abl, the cells become transformed to an IL-3 independent state. In this assay, cell proliferation is directly correlated to the activity of Bcr-Abl. […] The parental BaF3 cells, but not the Bcr-Abl transduced cells, were grown in the presence of recombinant IL-3 during the time course of this experiment. After the two day treatment, cell proliferation was quantified using the dye Resazurin, which is converted into a fluorescently detectable form only when metabolized by living cells.

T315I Abl = target: T2, T315I Abl (Homo sapiens, UniProt P00519, T315I); assay: In vitro kinase assay, T315I Abl; assay type: biochemical; settings: Table 1b
T2 sequence (P00519 242-493 T315I limits assumed): T1 sequence (P00519 242-493 limits assumed) with T74I
Procedure: as §1

T315A Abl = target: T3, T315A Abl (Homo sapiens, UniProt P00519, T315A); assay: In vitro kinase assay, T315A Abl; assay type: biochemical; settings: Table 1b
T3 sequence (P00519 242-493 T315A limits assumed): T1 sequence (P00519 242-493 limits assumed) with T74A
Procedure: as §1

[2] = Table 1b, read-out: IC50 WT Abl
[3] = Table 1b, read-out: IC50 WT Src

SMILES: CC(C)n1nc(-c2ccc(NC(=O)Nc3cccc(C(F)(F)F)c3)cc2)c2c(N)ncnc21 [AD57, 1-(4-(4-amino-1-isopropyl-1H-pyrazolo[3,4-d]pyrimidin-3-yl)phenyl)-3-(3-(trifluoromethyl)phenyl)urea]
- IC50 (Abl; [2]): < 1000 nM
- IC50 (Abl; unphosphorylated kinase domain, 100 mM ATP, read-out: IC50 for Abl): 41 nM
- inhibition of growth of parental BaF3 cells (parental BaF3 cells): but not parental BaF3 cells
- IC50 (T338G Src): < 1000 nM
- IC50 (c-Src; [3]): < 1000 nM
- IC50 (c-Src; unphosphorylated kinase domain, 100 mM ATP, read-out: IC50 for c-Src): 25 nM
- inhibition of growth of Bcr-Abl BaF3 cells [1]: equally inhibits the growth
- IC50 (T315I Abl): < 1000 nM

SMILES: CC(C)n1nc(-c2ccc(NC(=O)Nc3ccccc3)cc2)c2c(N)ncnc21 [AD58]
- IC50 (Abl; [2]): < 1000 nM
- IC50 (c-Src; [3]): < 1000 nM
- IC50 (T315I Abl): < 1000 nM

SMILES: Cn1nc(-c2ccc(NC(=O)Nc3cccc(C(F)(F)F)c3)cc2)c2c(N)ncnc21 [AD59, 1-(4-(4-amino-1-methyl-1H-pyrazolo[3,4-d]pyrimidin-3-yl)phenyl)-3-(3-(trifluoromethyl)phenyl)urea]
- IC50 (Abl; [2]): < 1000 nM
- IC50 (T315I Abl): < 1000 nM

SMILES: Nc1ncnc2c1c(-c1ccc(NC(=O)Nc3cccc(C(F)(F)F)c3)cc1)nn2C1CCCC1 [AD60, 1-(4-(4-amino-1-cyclopentyl-1H-pyrazolo[3,4-d]pyrimidin-3-yl)phenyl)-3-(3-(trifluoromethyl)phenyl)urea]
- IC50 (Abl; [2]): < 1000 nM
- IC50 (T315I Abl): < 1000 nM

SMILES: CC(C)n1nc(-c2ccc(NC(=O)Nc3cccc(C(F)(F)F)c3)cc2)c2c(NC(=O)C3CC3)ncnc21 [AD61]
- IC50 (Abl; [2]): < 1000 nM
- IC50 (T338G Src): < 1000 nM
- IC50 (c-Src; [3]): < 1000 nM
- IC50 (T315A Abl): < 1000 nM
- IC50 (T315I Abl): < 1000 nM

SMILES: CC(C)n1nc(-c2ccc(NC(=O)Nc3cccc(C(F)(F)F)c3)cc2)c2c(NC(=O)C3CCCC3)ncnc21 [AD62]
- IC50 (Abl; [2]): < 1000 nM
- IC50 (T338G Src): < 1000 nM
- IC50 (c-Src; [3]): < 1000 nM
- IC50 (T315A Abl): < 1000 nM
- IC50 (T315I Abl): < 1000 nM

SMILES: CC(C)n1nc(-c2ccc(NC(=O)Nc3cccc(C(F)(F)F)c3)cc2)c2c(NC(=O)c3ccc(C(C)(C)C)cc3)ncnc21 [AD63]
- IC50 (Abl; [2]): > 5000 nM
- IC50 (T338G Src): 1000 to 5000 nM
- IC50 (c-Src; [3]): > 5000 nM
- IC50 (T315A Abl): > 5000 nM
- IC50 (T315I Abl): < 1000 nM

Reference: patent publication US8697709B2, “Fused ring heteroaryl kinase inhibitors” (The Regents of the University of California, priority 2008, dated 2014)
